Tests used:
[1] = molecular target: thrombin receptor (PAR-1 receptor) (Homo sapiens (Human), UniProt P25116); assay: High throughput thrombin receptor radioligand binding assay ([3H]haTRAP, platelet membranes); conditions: [3H]haTRAP binding to platelet membranes
Description: The following binding assays were used to determine the ability of the inventive compounds to inhibit the PAR-1 receptor.
A(pF-F)R(ChA)(hR)(I2—Y)—NH2 (1.03 mg) and 10% Pd/C (5.07 mg) were suspended in DMF (250 μl) and diisopropylethylamine (10 μL). The vessel was attached to the tritium line, frozen in liquid nitrogen and evacuated. Tritium gas (342 mCi) was then added to the flask, which was stirred at room temperature for 2 hours. At the completion of the reaction, the excess tritium was removed and the reacted peptide solution was diluted with DMF (0.5 ml) and filtered to remove the catalyst. The collected DMF solution of the crude peptide was diluted with water and freeze dried to remove the labile tritium. The solid peptide was redissolved in water and the freeze drying process repeated. The tritiated peptide ([^3H]haTRAP) was dissolved in 0.5 ml of 0.1% aqueous TFA and purified by HPLC using the following conditions: column, Vydac™ C18, 25 cm×9.4 mm I.D.; mobile phase, (A) 0.1% TFA in water, (B) 0.1% TFA in CH3CN; gradient, (A/B) from 100/0 to 40/60 over 30 min; flow rate, 5 ml/min; detection, UV at 215 nm. The radiochemical purity of [^3H]haTRAP was 99% as analyzed by HPLC. A batch of 14.9 mCi at a specific activity of 18.4 Ci/mmol was obtained.
Platelet membranes were prepared using a modification of the method of Natarajan et al. (Natarajan et al, Int. J. Peptide Protein Res. 45:145-151 (1995)) from 20 units of platelet concentrates obtained from the North Jersey Blood Center (East Orange, N.J.) within 48 hours of collection. All steps were carried out at 4° C. under approved biohazard safety conditions. Platelets were centrifuged at 100×g for 20 minutes at 4° C. to remove red cells. The supernatants were decanted and centrifuged at 3000×g for 15 minutes to pellet platelets. Platelets were re-suspended in 10 mM Tris-HCl, pH 7.5, 150 mM NaCl, 5 mM EDTA, to a total volume of 200 ml and centrifuged at 4400×G for 10 minutes. This step was repeated two additional times. […] Protein concentration was determined by a Lowry assay (Lowry et al., J. Biol. Chem., 193:265-275 (1951)). […]

PAR1 = PAR1 (Homo sapiens (Human), UniProt P25116); assay: Par-1 FLIPR assay (calcium, HEK 293 cells, PAR1 activating peptide); type: cell-based; conditions: PAR1 selective receptor-activating peptide at 80% activation
Sequence of PAR1 (P25116 22-425): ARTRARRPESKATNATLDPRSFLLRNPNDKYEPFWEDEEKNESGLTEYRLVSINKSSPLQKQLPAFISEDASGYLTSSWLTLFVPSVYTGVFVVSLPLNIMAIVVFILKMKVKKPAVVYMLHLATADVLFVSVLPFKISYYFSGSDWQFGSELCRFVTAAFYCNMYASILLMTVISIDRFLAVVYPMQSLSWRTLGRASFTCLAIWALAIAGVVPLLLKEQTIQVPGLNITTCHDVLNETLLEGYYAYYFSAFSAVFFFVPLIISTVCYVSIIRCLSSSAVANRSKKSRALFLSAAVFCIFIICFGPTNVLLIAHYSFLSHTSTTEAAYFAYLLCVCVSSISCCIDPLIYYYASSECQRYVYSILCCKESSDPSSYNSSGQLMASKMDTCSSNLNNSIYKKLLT
Description: HEK 293 Cells were grown in media containing DMEM, 10% FBS pen/strep/L-Glutamine and non-essential amino acids. The cells were plated in 384-well PDL coated plates at 12000 cells/well and incubated overnight at 37° C./5% CO2. Media was then removed from the cells, which were then incubated with buffer (Hank's containing HEPES and Chaps) containing FLIPR calcium-5 dye, made with buffer containing probenecid, for 60 minutes at 37° C. Varying concentrations of compound in a final concentration of 5% DMSO were then added to the cells and incubated at 25° C. for 30 minutes. […] The FLIPR reads at an excitation wavelength of 480 nm and an emission wavelength of 535 nm, and performs 60 scans over a 1-2 min reading time. The data were analyzed by taking the peak signal over a portion of the range of the 60 scans and dividing this signal by the minimum signal for that same range.

Sequence of thrombin receptor (PAR-1 receptor) (P25116 22-425): as above

Row | SMILES | Ki [1] | IC50 (PAR1)
1 | C[C@H]1OC(=O)[C@]2(C(=O)NCCO)CC(F)(F)[C@@H](C)[C@H](/C=C/c3ccc(-c4cccc(F)c4)cn3)[C@H]12 [Example 13] | 3 nM | 17 nM
2 | C[C@H]1OC(=O)C2CC(F)(F)[C@@H](C)[C@H](/C=C/c3ccc(-c4cccc(F)c4)cn3)C21 (stereo partly shown) [Example 2] | 3 nM | 5.01 nM
3 | C[C@H]1OC(=O)[C@]2(NCc3nccn3C)CC(F)(F)[C@@H](C)[C@H](/C=C/c3ccc(-c4ccccc4C#N)cn3)[C@H]12 [Example 48] | – | 3 nM
4 | CC1[C@H](/C=C/c2ccc(-c3ccccc3C#N)cn2)C2[C@@H](C)OC(=O)[C@]2(NCc2cccnc2)CC1(F)F (stereo partly shown) [Example 38] | – | 4.7 nM
5 | C[C@H]1OC(=O)C2CC(F)(F)[C@@H](C)[C@H](/C=C/c3ccc(-c4ccccc4OC(F)(F)F)cn3)C21 (stereo partly shown) [Example 5] | – | 4.7 nM
6 | C[C@H]1OC(=O)[C@]2(O)CC(F)(F)[C@@H](C)[C@H](/C=C/c3ccc(-c4cccc(F)c4)cn3)[C@H]12 [Example 10] | 3 nM | 8.1 nM
7 | C[C@H]1OC(=O)[C@]2(Cc3ncon3)CC(F)(F)[C@@H](C)[C@H](/C=C/c3ccc(-c4ccccc4Cl)cn3)[C@H]12 [Example 26] | – | 1.2 nM

Continued, values first:

Row | Ki [1] | IC50 (PAR1) | SMILES
8 | – | 3.5 nM | C[C@H]1OC(=O)[C@]2(NC(=O)C3CC3)CC(F)(F)[C@@H](C)[C@H](/C=C/c3ccc(-c4ccccc4C#N)cn3)[C@H]12 [Example 66]
9 | – | 3 nM | C[C@H]1OC(=O)[C@]2(NC(=O)c3cccc(F)c3)CC(F)(F)[C@@H](C)[C@H](/C=C/c3ccc(-c4ccccc4C#N)cn3)[C@H]12 [Example 58]
10 | – | 2.9 nM | C[C@H]1OC(=O)[C@]2(NC(=O)c3ccc(C#N)cc3)CC(F)(F)[C@@H](C)[C@H](/C=C/c3ccc(-c4ccccc4C#N)cn3)[C@H]12 [Example 64]
